Experimental data: US9650340B2, “5-fluoro-N-(pyridin-2-yl)pyridin-2-amine derivatives containing a sulfoximine group” (BAYER PHARMA AKTIENGESELLSCHAFT, priority 2012, dated 2017)
pIC50: −log10 of the molar value. Converted amounts (≈) assume the structure as drawn.

Key:
Caco-2 permeation assay = format: in vitro ADME, human; conditions: human; for Papp A→B at 2 h, 2 µM / Papp B→A at 2 h, 2 µM: Caco-2, pH 7.2, Caco-2, 2 μM test compound; for Papp A→B at 2 h, 2 µM: apical to basolateral, read-out: Papp A-B (Mari); for Papp B→A at 2 h, 2 µM: basolateral to apical, read-out: Papp B-A (Mari); for efflux ratio at 2 h, 2 µM: Caco-2, pH 7.2, Caco-2, 2 μM, Papp B-A / Papp A-B
Description: (§1) 5. Caco-2 Permeation Assay:
(§2) Caco-2 cells (purchased from DSMZ Braunschweig, Germany) were seeded at a density of 4.5×10^4 cells per well on 24 well insert plates, 0.4 μm pore size, and grown for 15 days in DMEM medium supplemented with 10% fetal bovine serum, 1% GlutaMAX (100×, GIBCO), 100 U/mL penicillin, 100 μg/mL streptomycin (GIBCO) and 1% non essential amino acids (100 ×). Cells were maintained at 37° C. in a humified 5% CO2 atmosphere. Medium was changed every 2-3 day. Before running the permeation assay, the culture medium was replaced by a FCS—free hepes-carbonate transport buffer (pH 7.2). For assessment of monolayer integrity the transepithelial electrical resistance (TEER) was measured. Test compounds were predissolved in DMSO and added either to the apical or basolateral compartment in final concentration of 2 μM in transport buffer. Before and after 2 h incubation at 37° C. samples were taken from both compartments. Analysis of compound content was done after precipitation with methanol by LC/MS/MS analysis. Permeability (Papp) was calculated in the apical to basolateral (A→B) and basolateral to apical (B→A) directions. The apparent permeability was calculated using following equation: Papp=(Vr/Po)(1/S)(P2/t)
(§3) Where Vr is the volume of medium in the receiver chamber, Po is the measured peak area or height of the test drug in the donor chamber at t=o, S the surface area of the monolayer, P2 is the measured peak area of the test drug in the acceptor chamber after 2 h of incubation, and t is the incubation time. The efflux ratio basolateral (B) to apical (A) was calculated by dividing the Papp B-A by the Papp A-B. In addition the compound recovery was calculated. The following reference compounds were used for the classification of the permeability class: Antipyrine, Pyrazosin, Verapamil, Fluvastatin, Cimetidine, Ranitidine, Atenolol, Sulfasalazine.

[1] = Equilibrium shake flask solubility assay, thermodynamic solubility in water pH 6.5; format: physicochemical; conditions: phosphate buffer pH 6.5, 24 h, room temperature; for solubility at 24 h: phosphate buffer, pH 6.5, aqueous buffer, thermodynamic from solid
Description: 4. Equilibrium Shake Flask Solubility Assay:
4a) Thermodynamic Solubility in Water
The thermodynamic solubility of compounds in water was determined by an equilibrium shake flask method (see for example: E. H. Kerns, L. Di: Drug-like Properties: Concepts, Structure Design and Methods, 276-286, Burlington, Mass., Academic Press, 2008). A saturated solution of the drug was prepared and the solution was mixed for 24 h to ensure that equilibrium was reached. The solution was centrifuged to remove the insoluble fraction and the concentration of the compound in solution was determined using a standard calibration curve. To prepare the sample, 2 mg solid compound was weighed in a 4 mL glass vial. 1 mL phosphate buffer pH 6.5 was added. The suspension was stirred for 24 hrs at room temperature. The solution was centrifuged afterwards. To prepare the sample for the standard calibration, 2 mg solid sample was dissolved in 30 mL acetonitrile. After sonification the solution was diluted with water to 50 mL. Sample and standards were quantified by HPLC with UV-detection. For each sample two injection volumes (5 and 50 μl) in triplicates were made. Three injection volumes (5 μl, 10 μl and 20 μl) were made for the standard.
The areas of sample- and standard injections as well as the calculation of the solubility value (in mg/l) were determined by using HPLC software (Waters Empower 2 FR).

Caco-2 cell monolayers = assay: Caco-2 permeation assay; format: in vitro ADME, human; conditions: for Papp A-B (Mari) / Papp B-A (Mari): Caco-2, 2 μM test compound; for Papp A-B (Mari): apical to basolateral; for Papp B-A (Mari): basolateral to apical
Description: as §1, §2, §3

[2] = target: human carbonic anhydrase-2 (Homo sapiens, UniProt P00918); assay: Carbonic anhydrase assay, carbonic anhydrase-2; format: biochemical; conditions: read-out: Inhibition of Carbonic anhydrase-2 IC50
Description: (§4) 6. Carbonic Anhydrase Assay
(§5) The principle of the assay is based on the hydrolysis of 4-nitrophenyl acetate by carbonic anhydrases (Pocker & Stone, Biochemistry, 1967, 6, 668), with subsequent photometric determination of the dye product 4-nitrophenolate at 400 nm by means of a 96-channel spectral photometer.
(§6) 2 μL of the test compounds, dissolved in DMSO (100-fold final concentration), in a concentration range of 0.03-10 μmol/L (final), was pipetted as quadruplicates into the wells of a 96-hole microtiter plate. Wells that contained the solvent without test compounds were used as reference values (1. Wells without carbonic anhydrase for correction of the non-enzymatic hydrolysis of the substrate, and 2. Wells with carbonic anhydrase for determining the activity of the non-inhibited enzyme).
(§7) 188 μL of assay buffer (10 mmol/L of Tris/HCl, pH 7.4, 80 mmol/L of NaCl), with or without 3 units/well of carbonic anhydrase-1 [=human carbonic anhydrase-1 (Sigma, #C4396)] in order to determine carbonic anhydrase-1 inhibition or 3 units/well of carbonic anhydrase-2 [=human carbonic anhydrase-2 (Sigma, #C6165)] for measuring carbonic anhydrase-2 inhibition, was pipetted into the wells of the microtiter plate.

[3] = target: T1, human carbonic anhydrase-1 (Homo sapiens, UniProt P00915); assay: Carbonic anhydrase assay, carbonic anhydrase-1; format: biochemical; conditions: read-out: Inhibition of Carbonic anhydrase-1 IC50
T1 construct: purchased Sigma C4396
Description: as §4, §5, §6, §7

T1 sequence (P00915 whole entry): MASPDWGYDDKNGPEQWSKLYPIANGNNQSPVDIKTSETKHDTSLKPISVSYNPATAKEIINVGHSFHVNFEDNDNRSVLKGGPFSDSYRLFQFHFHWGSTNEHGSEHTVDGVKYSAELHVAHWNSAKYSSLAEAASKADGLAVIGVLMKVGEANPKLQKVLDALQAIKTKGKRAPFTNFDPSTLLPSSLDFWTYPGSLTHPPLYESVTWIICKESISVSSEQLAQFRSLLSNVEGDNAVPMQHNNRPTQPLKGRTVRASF

Compound `COc1cc(F)ccc1-c1cc(Nc2cc(CS(C)(=N)=O)cc(C(F)(F)F)n2)ncc1F` (single isomer, unassigned; (+)) [Example 22, (+)-5-Fluoro-4-(4-fluoro-2-methoxyphenyl)-N-{4-[(S-methylsulfonimidoyl)methyl]-6-(trifluoromethyl)pyridin-2-yl}pyridin-2-amine] has a Papp A→B at 2 h, 2 µM (Caco-2 permeation assay) of 4.8 ×10⁻⁶ cm/s, a Papp B→A at 2 h, 2 µM (Caco-2 permeation assay) of 5.3 ×10⁻⁶ cm/s and an efflux ratio at 2 h, 2 µM (Caco-2 permeation assay) of 1.1.
In the case of `COc1cc(F)ccc1-c1cc(Nc2cc(CS(=N)(=O)CCO)ccn2)ncc1F` (racemic) [Example 8, (rac)-2-{S-[(2-{[5-Fluoro-4-(4-fluoro-2-methoxyphenyl)pyridin-2-yl]amino}pyridin-4-yl)methyl]sulfonimidoyl}ethanol], the Papp A→B at 2 h, 2 µM (Caco-2 permeation assay) was 4.1 ×10⁻⁶ cm/s, the Papp B→A at 2 h, 2 µM (Caco-2 permeation assay) was 24.6 ×10⁻⁶ cm/s and the efflux ratio at 2 h, 2 µM (Caco-2 permeation assay) was 6.
For `COc1cc(F)ccc1-c1cc(Nc2cc(CS(C)(=N)=O)ccn2)ncc1F` (single isomer, unassigned; (-)) [Example 3, (−)-5-Fluoro-4-(4-fluoro-2-methoxyphenyl)-N-{4-[(S-methylsulfonimidoyl)methyl]pyridin-2-yl}pyridin-2-amine], the “Solubility in water at pH 6.5” value [1] was 27 mg/l, the “Papp A-B (Mari)” value (Caco-2 cell monolayers) was 133 nm/s and the “Papp B-A (Mari)” value (Caco-2 cell monolayers) was 197 nm/s.
In the case of `COc1cc(F)ccc1-c1cc(Nc2cc(CS(C)(=N)=O)cc(C(F)(F)F)n2)ncc1F` (single isomer, unassigned; (-)) [Example 23, (−)-5-Fluoro-4-(4-fluoro-2-methoxyphenyl)-N-{4-[(S-methylsulfonimidoyl)methyl]-6-(trifluoromethyl)pyridin-2-yl}pyridin-2-amine], the “Papp A-B (Mari)” value (Caco-2 cell monolayers) was 47 nm/s, the “Papp B-A (Mari)” value (Caco-2 cell monolayers) was 62 nm/s and the Efflux ratio (Caco-2 cell monolayers; Caco-2, 2 μM, Papp B-A / Papp A-B) was 1.3.
`CCS(=N)(=O)Cc1ccnc(Nc2cc(-c3ccc(F)cc3OC)c(F)cn2)c1` (racemic) [Example 30, (rac)-N-{4-[(S-Ethylsulfonimidoyl)-methyl]pyridin-2-yl}-5-fluoro-4-(4-fluoro-2-methoxyphenyl)pyridin-2-amine] gave a Papp A→B at 2 h, 2 µM (Caco-2 permeation assay) of 18.6 ×10⁻⁶ cm/s, a Papp B→A at 2 h, 2 µM (Caco-2 permeation assay) of 17.2 ×10⁻⁶ cm/s and an efflux ratio at 2 h, 2 µM (Caco-2 permeation assay) of 0.92.
With `COc1cc(F)ccc1-c1cc(Nc2cc(CS(C)(=N)=O)cc(C(F)(F)F)n2)ncc1F` (racemic) [Example 21, (rac)-5-Fluoro-4-(4-fluoro-2-methoxyphenyl)-N-{4-[(S-methylsulfonimidoyl)methyl]-6-(trifluoromethyl)pyridin-2-yl}pyridin-2-amine] the Papp A→B at 2 h, 2 µM (Caco-2 permeation assay) was 5.1 ×10⁻⁶ cm/s, the Papp B→A at 2 h, 2 µM (Caco-2 permeation assay) was 3.3 ×10⁻⁶ cm/s and the efflux ratio at 2 h, 2 µM (Caco-2 permeation assay) was 0.64.
`COc1cc(F)ccc1-c1cc(Nc2cc(CS(C)(=N)=O)cc(F)n2)ncc1F` (racemic) [Example 17, (rac)-5-Fluoro-4-(4-fluoro-2-methoxyphenyl)-N-{6-fluoro-4-[(S-methylsulfonimidoyl)methyl]pyridin-2-yl}pyridin-2-amine] gave a Papp A→B at 2 h, 2 µM (Caco-2 permeation assay) of 14.1 ×10⁻⁶ cm/s, a Papp B→A at 2 h, 2 µM (Caco-2 permeation assay) of 13.5 ×10⁻⁶ cm/s and an efflux ratio at 2 h, 2 µM (Caco-2 permeation assay) of 0.96.
For `COc1cc(F)ccc1-c1cc(Nc2cc(CS(C)(=N)=O)ccn2)ncc1F` (single isomer, unassigned; (+)) [Example 2, (+)-5-Fluoro-4-(4-fluoro-2-methoxyphenyl)-N-{4-[(S-methylsulfonimidoyl)methyl]pyridin-2-yl}pyridin-2-amine], the solubility at 24 h [1] was 25 µg/mL (≈ 61.8 µM), the Papp A→B at 2 h, 2 µM (Caco-2 permeation assay) was 16.6 ×10⁻⁶ cm/s and the Papp B→A at 2 h, 2 µM (Caco-2 permeation assay) was 18.6 ×10⁻⁶ cm/s.
`COc1cc(F)ccc1-c1cc(Nc2cc(CS(C)(=N)=O)ccn2)ncc1F` (racemic) [Example 1, (rac)-5-Fluoro-4-(4-fluoro-2-methoxyphenyl)-N-{4-[(S-methylsulfonimidoyl)methyl]pyridin-2-yl}pyridin-2-amine] showed a solubility at 24 h [1] of 13 µg/mL (≈ 32.1 µM), a Papp A→B at 2 h, 2 µM (Caco-2 permeation assay) of 15.5 ×10⁻⁶ cm/s and a Papp B→A at 2 h, 2 µM (Caco-2 permeation assay) of 18 ×10⁻⁶ cm/s. The pIC50 [2] was under 5.00 and the pIC50 [3] was under 5.00.
Work on `COc1cc(F)ccc1-c1cc(Nc2cc(CS(C)(=N)=O)cc(C)n2)ncc1F` (racemic) [Example 4, (rac)-5-Fluoro-4-(4-fluoro-2-methoxyphenyl)-N-{6-methyl-4-[(S-methylsulfonimidoyl)methyl]pyridin-2-yl}pyridin-2-amine] yielded a Papp A→B at 2 h, 2 µM (Caco-2 permeation assay) of 19.6 ×10⁻⁶ cm/s, a Papp B→A at 2 h, 2 µM (Caco-2 permeation assay) of 14.9 ×10⁻⁶ cm/s and an efflux ratio at 2 h, 2 µM (Caco-2 permeation assay) of 0.76.
